Assay results as given in patent publication US3943131A, “Trifluoromethylmercaptoacetamidocephalosporins” (SmithKline Corporation, priority 1974, dated 1976).
In brackets after ≈: the same amount, converted by molar mass. Like-named read-outs stand apart in the source and are kept apart here.

How the values were obtained:
Type in all cases: cell-based
Entero. aerogenes = assay: MIC in vitro, Entero. aerogenes; conditions: Klebsiella aerogenes
Strep. faecalis HH 34358 = assay: MIC in vitro, Strep. faecalis HH 34358; conditions: Enterococcus faecalis, HH34358
S. aureus HH 127 = assay: MIC in vitro, S. aureus HH 127; conditions: Staphylococcus aureus, HH127
Pseudomonas sp. HH 63 = assay: MIC in vitro, Pseudomonas sp. HH 63; conditions: SP.HH63
K. pneumo. SK 4200 = assay: MIC in vitro, K. pneumo. SK 4200
Strep. pyog. C 203 = assay: MIC in vitro, Strep. pyog. C 203
E. coli. HH 33779 = assay: MIC in vitro, E. coli HH 33779; conditions: Escherichia coli
[1] = E. coli. HH 33779, read-out: MIC

Compound | MIC (Entero. aerogenes) [µg/mL] | MIC (Strep. faecalis HH 34358) [µg/mL] | MIC (S. aureus HH 127) [µg/mL] | MIC (Pseudomonas sp. HH 63) [µg/mL] | MIC (K. pneumo. SK 4200) [µg/mL] | MIC (Strep. pyog. C 203) [µg/mL] | MIC (E. coli. HH 33779; [1]) [µg/mL] | MIC (E. coli. HH 33779) [µg/mL]
CC(=O)OCC1=C(C(=O)O)N2C(=O)C(NC(=O)CSC(F)(F)F)C2SC1 (stereo not drawn) [I, 7-trifluoromethylmercaptoacetamidocephalosporanic acid] | 50 (≈ 121 µM) | 25 (≈ 60.3 µM) | 0.4 (≈ 0.965 µM) | < 200 | 0.8 (≈ 1.93 µM) | 0.1 (≈ 0.241 µM) | 6.3 (≈ 15.2 µM) | –
Cn1nnnc1SCC1=C(C(=O)O)N2C(=O)C(NC(=O)CSC(F)(F)F)[C@H]2SC1 (stereo partly drawn) [II, 7-Trifluoromethylmercaptoacetamido-3-(1-methyl-tetrazol-5-ylthiomethyl)-3-cephem-4-carboxylic acid] | 1.6 (≈ 3.4 µM) | 25 (≈ 53.1 µM) | 0.4 (≈ 0.85 µM) | < 200 | 0.8 (≈ 1.7 µM) | 0.1 (≈ 0.213 µM) | 1.6 (≈ 3.4 µM) | –
Cc1nnc(SCC2=C(C(=O)O)N3C(=O)C(NC(=O)CSC(F)(F)F)[C@H]3SC2)s1 (stereo partly drawn) [III, 7-trifluoromethylmercaptoacetamido-3-(5-methyl-1,3,4-thiadiazol-2-ylthiomethyl)-3-cephem-4-carboxylic acid] | 6.3 (≈ 12.9 µM) | 12.5 (≈ 25.7 µM) | 0.4 (≈ 0.822 µM) | < 200 | 1.6 (≈ 3.29 µM) | 0.1 (≈ 0.206 µM) | – | 3.1 (≈ 6.37 µM)
